Assays:
RON = RON (Homo sapiens, UniProt Q04912); experiment: RON inhibitory activity, TR-FRET kinase assay; type: biochemical; conditions: RON protein, ULight-labeled Poly GT substrate
Experimental: To measure the RON inhibitory activity of the example compounds, the IC50 of the compounds was measured using time-resolved fluorescence energy transfer (TR-FRET).
Specifically, the compound was prepared at a concentration of 1 mM with 100% DMSO and serially diluted 10 times through 3-fold dilution. 2 μl of the serially diluted compound was added to a 96-well plate containing 48 μl of 1× kinase reaction buffer (50 mM HEPES (pH 7.4), 0.01% Tween-20, 5 mM DTT, 0.5 mM Na3VO4, 2 mM EGTA, 10 mM MgCl2).
The RON protein was diluted with a RON storage buffer (50 mM Tris-HCl (pH 7.5), 150 mM NaCl, 0.5 mM EDTA, 0.02% Triton X-100) to a concentration of 49.3 nM, and then diluted again with 1× kinase reaction buffer to be 0.4 nM. As a substrate cocktail, a RON-specific substrate mixture (40 μM ULight-labeled Poly GT, 100 nM ATP) was prepared at a concentration twice the final reaction concentration.
(§1) After that, a 384-well plate was prepared, and 2.5 μl of the diluted example compound was added to each of the experimental group wells, and 2.5 μl of a 4% DMSO solution was dispensed into high control wells and low control wells.
(§2) Afterward, 2.5 μl of 0.4 nM RON was dispensed into the high control wells and the experimental group wells, and 2.5 μl of 1× kinase reaction buffer was added to the low control wells, and after centrifugation at 1000 RPM for 40 seconds at room temperature, the mixtures were incubated at room temperature for 20 to 30 minutes. Then, 5 μl of the substrate cocktail (2×) was dispensed into all wells, and after centrifugation at 1000 RPM for 40 seconds at room temperature, the mixtures were incubated at room temperature for 60 minutes. Afterward, 5 μl of 30 mM EDTA was added to all wells to terminate the reaction, and the mixtures were incubated again at room temperature for 5 minutes. Thereafter, 5 μl of 4× phosphotyrosine antibodies (Perkin Elmer) containing europium was added to all wells and incubated at room temperature for 60 minutes. After the incubation, the 384-well-plate was read with a Vison plate reader. At this time, the excitation wavelength was 340 nm, and the emission wavelengths were 620 nm and 665 nm. The IC50 value of each example compound was derived using the GraphPd Prism7 program.

cMET = cMET (Homo sapiens, UniProt P08581); experiment: MET (cMET) enzyme inhibitory activity, TR-FRET kinase assay; type: biochemical; conditions: cMET protein, TK peptide substrate
Experimental: In addition, to measure cMET enzyme activity inhibition, an experiment was performed by the same method as the experiment for measuring the RON enzyme activity inhibition.
Specifically, the compound was prepared at a concentration of 1 mM with 100% DMSO and serially diluted 10 times through 3-fold dilution. 2 μl of the serially diluted compound was added to a 96-well plate containing 48 μl 1× kinase reaction buffer (50 mM HEPES (pH 7.4), 0.05% BSA, 0.005% Tween-20, 1 mM DTT, 0.5 mM MnCl2, 20 mM MgCl2).
The cMET protein was diluted in a cMET storage buffer (50 mM Tris-HCl (pH 7.5), 150 mM NaCl, 0.05% Brij35, 1 mM DTT, 10% glycerol) to a concentration of 263 nM, and then diluted again with 1× kinase reaction buffer to 2 nM. As a substrate cocktail, a MET-specific substrate mixture (5 μM TK peptide, 10 mM ATP) was prepared at a concentration twice the final reaction concentration.
as §1
as §2, with “μl of 2 nM cMET” for “μl of 0.4 nM RON”, “2 nM cMET was dispensed” for “0.4 nM RON was dispensed”, “was dispensed to the high” for “was dispensed into the high”, “μl of 90 mM EDTA” for “μl of 30 mM EDTA”

Chain of cMET (P08581 25-1390): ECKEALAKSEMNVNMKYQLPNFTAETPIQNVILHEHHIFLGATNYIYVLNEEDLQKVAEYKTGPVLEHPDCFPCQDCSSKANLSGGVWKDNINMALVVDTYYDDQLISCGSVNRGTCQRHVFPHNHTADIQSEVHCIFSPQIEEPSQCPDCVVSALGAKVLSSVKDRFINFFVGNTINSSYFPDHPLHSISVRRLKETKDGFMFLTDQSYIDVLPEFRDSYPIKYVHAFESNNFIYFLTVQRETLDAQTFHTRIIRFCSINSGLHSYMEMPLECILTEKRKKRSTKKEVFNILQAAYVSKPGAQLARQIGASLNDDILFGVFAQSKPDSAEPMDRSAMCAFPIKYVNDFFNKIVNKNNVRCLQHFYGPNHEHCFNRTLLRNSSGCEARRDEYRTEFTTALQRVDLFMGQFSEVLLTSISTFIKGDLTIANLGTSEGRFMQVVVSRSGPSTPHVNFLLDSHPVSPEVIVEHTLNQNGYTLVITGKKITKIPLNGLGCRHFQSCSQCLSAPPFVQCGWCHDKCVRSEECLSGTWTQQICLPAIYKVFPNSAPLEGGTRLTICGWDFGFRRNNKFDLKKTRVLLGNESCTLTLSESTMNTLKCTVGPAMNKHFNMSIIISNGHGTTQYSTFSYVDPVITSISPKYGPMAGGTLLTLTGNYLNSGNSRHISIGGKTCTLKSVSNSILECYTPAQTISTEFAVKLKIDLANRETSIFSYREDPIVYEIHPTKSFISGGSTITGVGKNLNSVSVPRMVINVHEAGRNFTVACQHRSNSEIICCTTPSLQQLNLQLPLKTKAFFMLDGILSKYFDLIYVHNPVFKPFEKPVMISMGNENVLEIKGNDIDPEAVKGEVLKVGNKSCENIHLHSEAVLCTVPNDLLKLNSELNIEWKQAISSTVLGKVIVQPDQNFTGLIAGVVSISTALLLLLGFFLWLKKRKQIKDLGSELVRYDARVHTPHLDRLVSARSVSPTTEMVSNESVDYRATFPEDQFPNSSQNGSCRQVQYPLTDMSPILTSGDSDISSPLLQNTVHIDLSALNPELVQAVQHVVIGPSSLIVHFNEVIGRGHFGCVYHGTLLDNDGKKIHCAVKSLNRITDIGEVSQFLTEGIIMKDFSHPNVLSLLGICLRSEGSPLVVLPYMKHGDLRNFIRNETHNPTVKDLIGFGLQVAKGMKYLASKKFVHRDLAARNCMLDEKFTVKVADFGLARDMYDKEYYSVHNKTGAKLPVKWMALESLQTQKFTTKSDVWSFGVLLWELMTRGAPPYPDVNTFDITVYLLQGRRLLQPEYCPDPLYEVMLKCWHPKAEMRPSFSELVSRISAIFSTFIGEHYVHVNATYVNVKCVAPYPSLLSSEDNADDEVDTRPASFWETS
Chain of RON (Q04912 25-1400, species assumed): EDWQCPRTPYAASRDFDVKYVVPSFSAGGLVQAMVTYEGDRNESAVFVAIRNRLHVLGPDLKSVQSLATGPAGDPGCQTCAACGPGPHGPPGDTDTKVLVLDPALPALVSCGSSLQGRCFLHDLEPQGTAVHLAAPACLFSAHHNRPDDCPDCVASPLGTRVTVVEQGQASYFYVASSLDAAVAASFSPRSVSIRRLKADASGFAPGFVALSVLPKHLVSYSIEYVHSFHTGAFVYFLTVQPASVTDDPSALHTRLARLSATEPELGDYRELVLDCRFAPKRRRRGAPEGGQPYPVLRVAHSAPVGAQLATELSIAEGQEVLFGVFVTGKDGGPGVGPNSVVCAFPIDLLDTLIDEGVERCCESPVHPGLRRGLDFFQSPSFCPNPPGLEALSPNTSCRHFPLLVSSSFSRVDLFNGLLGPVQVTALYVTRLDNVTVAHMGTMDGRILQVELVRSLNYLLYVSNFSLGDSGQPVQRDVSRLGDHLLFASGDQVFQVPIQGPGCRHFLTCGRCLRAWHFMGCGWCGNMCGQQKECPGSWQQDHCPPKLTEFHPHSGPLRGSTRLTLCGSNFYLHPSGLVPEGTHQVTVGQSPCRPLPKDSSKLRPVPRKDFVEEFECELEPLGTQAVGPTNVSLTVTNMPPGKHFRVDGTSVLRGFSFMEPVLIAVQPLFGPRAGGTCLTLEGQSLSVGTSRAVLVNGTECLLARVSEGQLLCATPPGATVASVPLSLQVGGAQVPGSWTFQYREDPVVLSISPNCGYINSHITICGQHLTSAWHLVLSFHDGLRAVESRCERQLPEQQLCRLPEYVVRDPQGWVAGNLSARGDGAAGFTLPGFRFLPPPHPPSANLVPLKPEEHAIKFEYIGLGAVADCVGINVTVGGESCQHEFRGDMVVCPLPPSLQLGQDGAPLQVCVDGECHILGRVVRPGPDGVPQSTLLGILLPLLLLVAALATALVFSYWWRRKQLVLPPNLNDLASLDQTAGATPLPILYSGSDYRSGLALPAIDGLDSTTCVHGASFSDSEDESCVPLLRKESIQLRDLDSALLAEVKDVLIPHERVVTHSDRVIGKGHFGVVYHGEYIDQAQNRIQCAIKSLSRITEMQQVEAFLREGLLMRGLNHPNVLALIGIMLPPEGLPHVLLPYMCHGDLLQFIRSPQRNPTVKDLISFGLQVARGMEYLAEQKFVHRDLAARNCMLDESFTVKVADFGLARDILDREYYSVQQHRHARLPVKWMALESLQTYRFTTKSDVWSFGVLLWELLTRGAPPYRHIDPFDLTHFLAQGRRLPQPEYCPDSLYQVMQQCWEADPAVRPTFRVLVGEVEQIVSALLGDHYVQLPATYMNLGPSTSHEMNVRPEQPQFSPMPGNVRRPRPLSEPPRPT

| SMILES | IC50 (RON) | IC50 (cMET) |
| --- | --- | --- |
| Nc1nccc(Oc2c(F)cc(NC(=O)c3cnn(-c4ncccc4F)c3C(F)(F)F)cc2F)c1CN1CCOCC1 [Example 47, N-(4-((2-amino-3-(morpholinomethyl)pyridin-4-yl)oxy)-3,5-difluorophenyl)-1-(3-fluoropyridine-2-yl)-5-(trifluoromethyl)-1H-pyrazole-4-carboxamide] | < 50 nM | 500 to 5000 nM |
| Nc1nccc(Oc2c(F)cc(NC(=O)c3cnn(-c4cccnn4)c3C(F)(F)F)cc2F)c1Cl [Example 3, N-(4-((2-amino-3-chloropyridin-4-yl)oxy)-3,5-difluorophenyl)-1-(pyridazin-3-yl)-5-(trifluoromethyl)-1H-pyrazole-4-carboxamide] | < 50 nM | 500 to 5000 nM |
| Nc1nccc(Oc2cc(F)c(NC(=O)c3cnn(-c4ncccc4F)c3C(F)(F)F)cc2F)c1Cl [Example 5, N-(4-((2-amino-3-chloropyridin-4-yl)oxy)-2,5-difluorophenyl)-1-(3-fluoropyridin-2-yl)-5-(trifluoromethyl)-1H-pyrazole-4-carboxamide] | < 50 nM | > 5000 nM |
| Nc1ncnc(Oc2c(F)cc(NC(=O)c3cnn(-c4ccccc4)c3C(F)(F)F)cc2F)c1Cl [Example 9, N-(4-((6-amino-5-chloropyrimidin-4-yl)oxy)-3,5-difluorophenyl)-1-phenyl-5-(trifluoromethyl)-1H-pyrazole-4-carboxamide] | < 50 nM | > 5000 nM |
| Nc1nccc(Oc2c(F)cc(NC(=O)c3cnn(-c4ccccn4)c3C(F)(F)F)cc2F)c1I [Example 14, N-(4-((2-amino-3-iodopyridin-4-yl)oxy)-3,5-difluorophenyl)-1-(pyridin-2-yl)-5-(trifluoromethyl)-1H-pyrazole-4-carboxamide] | < 50 nM | > 5000 nM |
| Nc1nccc(Oc2c(F)cc(NC(=O)c3cnn(-c4cccnn4)c3C(F)(F)F)cc2F)c1C1CCOCC1 [Example 23, N-(4-((2-amino-3-(tetrahydro-2H-pyran-4-yl)pyridin-4-yl)oxy)-3,5-difluorophenyl)-1-(pyridazin-3-yl)-5-(trifluoromethyl)-1H-pyrazole-4-carboxamide] | < 50 nM | 500 to 5000 nM |
| Nc1nccc(Oc2c(F)cc(NC(=O)c3cnn(-c4ncccn4)c3C(F)(F)F)cc2F)c1I [Example 18, N-(4-((2-amino-3-iodopyridin-4-yl)oxy)-3,5-difluorophenyl)-1-(pyrimidin-2-yl)-5-(trifluoromethyl)-1H-pyrazole-4-carboxamide] | < 50 nM | 500 to 5000 nM |
| COCCCn1ncc(C(=O)Nc2cc(F)c(Oc3ccnc(N)c3Cl)c(F)c2)c1C(F)(F)F [Example 61, N-[4-[(2-amino-3-chloro-4-pyridyl)oxy]-3,5-difluoro-phenyl]-1-(3-methoxypropyl)-5-(trifluoromethyl)pyrazole-4-carboxamide] | 50 to 500 nM | 500 to 5000 nM |
| Nc1nccc(Oc2c(F)cc(NC(=O)c3cnn(-c4ccccc4)c3C(F)(F)F)cc2F)c1C1CC1 [Example 37, N-(4-((2-amino-3-cyclopropylpyridin-4-yl)oxy)-3,5-difluorophenyl)-1-phenyl-5-(trifluoromethyl)-1H-pyrazole-4-carboxamide] | < 50 nM | 500 to 5000 nM |
| COCCCN1CCC(n2ncc(C(=O)Nc3cc(F)c(Oc4ccnc(N)c4Cl)c(F)c3)c2C(F)(F)F)CC1 [Example 59, N-(4-((2-amino-3-chloropyridin-4-yl)oxy)-3,5-difluorophenyl)-1-(1-(3-methoxypropyl)piperidin-4-yl)-5-(trifluoromethyl)-1H-pyrazole-4-carboxamide] | 500 to 5000 nM | > 5000 nM |
| N#Cc1c(Oc2c(F)cc(NC(=O)c3cnn(-c4ccccn4)c3C(F)(F)F)cc2F)ccnc1N [Example 32, N-(4-((2-amino-3-cyanopyridin-4-yl)oxy)-3,5-difluorophenyl)-1-(pyridin-2-yl)-5-(trifluoromethyl)-1H-pyrazole-4-carboxamide] | < 50 nM | 500 to 5000 nM |

Reference: patent publication US20260217673A1, “NOVEL COMPOUND AS RON INHIBITOR” (LG CHEM, LTD., priority 2022, published 2026)
